Source: paper PMC5556071, “ATR inhibition facilitates targeting of leukemia dependence on convergent nucleotide biosynthetic pathways” (Nature Communications, 2017)
Where “and” joins values, the source holds several entries; their conditions need not be identical. Equal values may be shown once.

System: CEM cells
Experiment: Non-targeted LC-MS metabolite profiling: percent [13C6]glucose labeling and relative metabolite levels
Type: cell-based, human
Description: To further investigate the functions of dCK and ATR at the G1/S transition in CEM cells, a non-targeted liquid chromatography mass spectrometry (LC-MS) assay was used to determine the utilization of labeled [^13C6]glucose and [^13C9,^15N3]deoxycytidine, the main substrates for de novo and salvage nucleotide biosynthesis, respectively. Of the 166 metabolites identified in CEM cells treated with VE-822 and/or dCKi, 105 metabolites found in all four treatment groups contained glucose-derived ^13C atoms. […] These metabolites included intermediates such as rUTP, rCTP and rCDP in the de novo dCTP biosynthesis (Fig. 1d). […] However, several deoxyribonucleotides, including dCTP, were below the limit of detection of the non-targeted LC-MS approach, raising the concern that the sensitivity of this assay is not sufficient to measure the contribution of the salvage pathway or the ratio of de novo and salvage biosynthesis to these pools. To address this problem, a newly developed targeted MS assay was developed (Fig. 1e and Supplementary Fig. 3). In this assay, samples containing either extracted dNTPs or hydrolyzed DNA from labeled cells are separated by LC for detection by a triple quadrupole mass spectrometer using multiple reaction monitoring (LC-MS/MS-MRM). The first (Q1) and third (Q3) quadrupoles function as mass filters, while the second (Q2) quadrupole serves as a collision chamber (Fig. 1e). For instance, to profile the biosynthetic composition of deoxycytidine (dC) derived from hydrolyzed DNA or dCTP, an intact, protonated dC ion is selected in Q1, followed by fragmentation of the glycosidic bond, which releases protonated cytosine in Q2, that is filtered in Q3 and detected to generate an ion chromatogram. The peak areas for the ion chromatograms of salvage [^13C9,^15N3]dC (red trace), de novo [^13C5]dC (black trace, from [^13C6]glucose) and unlabeled dC (gray trace) (Fig. 1e) are used to determine the relative contributions of the de novo and salvage routes both to dCTP pools and to DNA-incorporated dCTP.
Cells were transferred into RPMI-1640 without glucose and supplemented with 10% dialyzed FBS (Gibco) containing the following labeled substrates: precursors for de novo [U-^13C6]glucose (Sigma-Aldrich, 389374) at 11 mM; precursors for purine salvage [U-^13C10,^15N5]dA (Cambridge Isotopes, CIL 3896), [^15N5]dA (Cambridge Isotopes, NLM-3895) and [^15N5]dG (Cambridge Isotopes, NLM-3899) at 5 µM or as indicated; and precursors for pyrimidine salvage: [U-^13C9,^15N3]dC (Silantes, 124603602) and [U-^13C10,^15N2]dT (Cambridge Isotopes, CNLM-3902) at 5 µM and [^15N2]orotate (Cambridge Isotopes, NLM-1048) at indicated concentrations. The cells were incubated for 12 h or as indicated before sample collection and processing. […]
Non-targeted LC-MS metabolic assays. 1 x 10^6 cells were washed with ice-cold 150 mM ammonium acetate twice before adding 1 mL of ice-cold 80% methanol with 10 nM norvaline as an internal standard. After vigorous vortexing, samples were centrifuged at maximum speed, the aqueous layer was transferred to a glass vial and the metabolites were dried under vacuum. Metabolites were resuspended in 50 μL 70% acetonitrile (ACN) and 5 μL of this solution used for the mass spectrometer-based analysis. The analysis was performed on a Q Exactive (Thermo Scientific) in polarity-switching mode with positive voltage 4.0 kV and negative voltage 4.0 kV. The mass spectrometer was coupled to an UltiMate 3000RSLC (Thermo Scientific) UHPLC system. Mobile phase A was 5 mM ammonium acetate (NH4AcO), pH 9.9, B was acetonitrile and the separation achieved on a Luna […] NH2 100 A column (150 × 2.0 mm, Phenomenex). The flow was 200 μL/min, and the gradient ran from 15% A to 95% A in 18 min, followed by an isocratic step for 9 min and re-equilibration for 7 min. Metabolites were detected and quantified as area under the curve based on retention time and accurate mass (≤ 3 p.p.m.) using the TraceFinder 3.1 (Thermo Scientific). Relative amounts of […]

[1] = metabolite Gln (KEGG C00064), CEM cells, 12 h following release from G1 arrest, replicates #1-#6, listed as V
[2] = metabolite Glu (KEGG C00025), CEM cells, 12 h following release from G1 arrest, replicates #1-#6, listed as V
[3] = metabolite GlucA (KEGG C00191), CEM cells, 12 h following release from G1 arrest, replicates #1-#6, listed as V
[4] = metabolite Gly (KEGG C00037), CEM cells, 12 h following release from G1 arrest, replicates #1-#6, listed as V
[5] = metabolite Glycerol (KEGG C00116), CEM cells, 12 h following release from G1 arrest, replicates #1-#6, listed as V
[6] = metabolite Glycerol-2-P (KEGG C02979), CEM cells, 12 h following release from G1 arrest, replicates #1-#6, listed as V
[7] = metabolite Glycerol-3-P (KEGG C00093), CEM cells, 12 h following release from G1 arrest, replicates #1-#6, listed as V
[8] = metabolite Homocysteine (KEGG C00155), CEM cells, 12 h following release from G1 arrest, replicates #1-#6, listed as V
[9] = metabolite Hypoxanthine (KEGG C00262), CEM cells, 12 h following release from G1 arrest, replicates #1-#6, listed as V
[10] = metabolite IMP (KEGG C00130), CEM cells, 12 h following release from G1 arrest, replicates #1-#6, listed as V
[11] = metabolite Inosine (KEGG C00294), CEM cells, 12 h following release from G1 arrest, replicates #1-#6, listed as V
[12] = metabolite a-KG (C00026), CEM cells, 12 h following release from G1 arrest, replicates #1-#6, listed as V

In the case of `CNCc1ccc(-c2cc(-c3nc(-c4ccc(S(=O)(=O)C(C)C)cc4)cnc3N)on2)cc1` [VE-822], the “Glucose labeling of Gln” value [1] is reported as 0.12% (2×) and 0.11% and 0.10% and 0.14% and 0.13%, the “Relative level of Gln” value [1] is reported as 1.4 and 1.5 (2×) and 1.0 (2×) and 1.1 and the “Glucose labeling of Glu” value [2] is reported as 29.64% and 29.75% and 29.30% and 29.37% and 29.63% and 30.02%. The “Relative level of Glu” value [2] was 1.1 and 1.0 (2×) and 0.8 and 0.6 (2×), the “Glucose labeling of GlucA” value [3] was 1.00% and 0.54% and 0.16% and 1.19% and 0.18% (2×) and the “Relative level of GlucA” value [3] was 1.5 and 1.3 (2×) and 0.9 and 0.664 and 0.6. The “Glucose labeling of Gly” value [4] was 3.91% and 4.81% and 4.97% and 3.57% and 3.82% and 3.53%, the “Relative level of Gly” value [4] was 1.8 and 1.3 (2×) and 0.853 and 0.8 and 0.846 and the “Glucose labeling of Glycerol” value [5] was 0.0369% (3×) and 0.02% and 0.03% and 0.0184%. For the same compound, the “Relative level of Glycerol” value [5] was 0.6 and 1.0 and 0.643 and 1.2 (2×) and 2.5, the “Glucose labeling of Glycerol-2-P” value [6] was 20.62% and 19.08% and 14.73% and 9.01% and 11.61% and 10.03% and the “Relative level of Glycerol-2-P” value [6] was 2.7 and 1.2 and 1.6 and 1.8 and 0.334 and 0.262. The “Glucose labeling of Glycerol-3-P” value [7] was 13.71% and 13.99% and 13.43% and 15.94% and 16.61% and 16.91%, the “Relative level of Glycerol-3-P” value [7] was 1.3 and 1.4 (2×) and 1.0 (2×) and 0.9 and the “Glucose labeling of HS2O3” value (metabolite HS2O3 (KEGG C00320), CEM cells, 12 h following release from G1 arrest, replicates #1-#6) was 100.00%. For the same compound, the “Relative level of HS2O3” value (metabolite HS2O3 (KEGG C00320), CEM cells, 12 h following release from G1 arrest, replicates #1-#6, listed as V) was 1.2 and 0.9 and 1.0 (3×) and 1.1, the “Glucose labeling of His” value (metabolite His (KEGG C00135), CEM cells, 12 h following release from G1 arrest, replicates #1-#6) was 0.00% and the “Relative level of His” value (metabolite His (KEGG C00135), CEM cells, 12 h following release from G1 arrest, replicates #1-#6, listed as V) was 1.3 and 1.5 and 1.4 and 0.7 and 0.8 (2×). The “Glucose labeling of Homocysteine” value [8] was 0.000288% and 0.000653% and 0.00102% and 0.000955% and 0.0737% (2×), the “Relative level of Homocysteine” value [8] was 2.9 and 3.8 and 5.4 and 40.5 and 0.9 and 1.3 and the “Glucose labeling of Hypoxanthine” value [9] was 0.12% (2×) and 0.05% and 0.0153% and 0.00222% and 0.0636%. The “Relative level of Hypoxanthine” value [9] was 2.4 and 3.2 and 4.8 and 46.0 and 2.3 and 1.3, the “Glucose labeling of IMP” value [10] was 85.88% and 80.98% and 88.08% and 72.70% and 96.97% and 95.32% and the “Relative level of IMP” value [10] was 2.4 and 1.3 (2×) and 1.7 and 0.4 (2×). For the same compound, the “Glucose labeling of Inosine” value [11] was 46.28% and 0.55% and 45.89% and 28.71% and 31.06% and 6.95%, the “Relative level of Inosine” value [11] was 1.9 and 1.5 and 4.0 and 5.0 and 1.2 and 4.1 and the “Glucose labeling of Inositol” value (metabolite Inositol (KEGG C00137), CEM cells, 12 h following release from G1 arrest, replicates #1-#6) was 0.00%. The “Relative level of Inositol” value (metabolite Inositol (KEGG C00137), CEM cells, 12 h following release from G1 arrest, replicates #1-#6, listed as V) was 1.2 and 1.3 (2×) and 1.0 (3×), the “Glucose labeling of Isocaproate” value (metabolite Isocaproate (X00005), CEM cells, 12 h following release from G1 arrest, replicates #1-#6) was 0.00% and the “Relative level of Isocaproate” value (metabolite Isocaproate (X00005), CEM cells, 12 h following release from G1 arrest, replicates #1-#6, listed as V) was 0.949 and 1.1 and 1.2 and 0.9 and 1.0 and 0.7. The “Glucose labeling, a-KG” value [12] was 12.64% and 3.49% and 7.53% and 10.05% and 2.98% and 1.28%, the “Relative level, a-KG” value [12] was 1.7 and 0.7 and 1.0 and 0.9 and 0.3 and 0.255 and the “decrease of glucose labeling of orotidine monophosphate (OMP)” value (non-targeted LC-MS analysis) was 30%.
